Test results: the supplement of paper PMC10307832

Experiments:
Assay in all cases: relative viability (nuclei count vs DMSO), 5 days (fraction); higher = more cells survive
[1] = compound: CN(C)C[C@@H]1CCn2cc(c3ccccc32)C2=C(C(=O)NC2=O)c2cn(c3ccccc23)CCO1 [Ruboxistaurin] + C[C@@H](Oc1cc(-c2cnn(C3CCNCC3)c2)cnc1N)c1c(Cl)ccc(F)c1Cl [Crizotinib] (partner 1 µM)
In short: (§1)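 Lung cancer cell lines were seeded in 1536-well plates and dosed by pin tool the next day, with either a single drug or a fixed anchor-drug dose combined with five library-drug doses (not always all listed) spaced in √10 steps. Five days later, one step fixed the cells and stained their nuclei (final 0.05% Triton X-100, 1% formaldehyde, 1 ug/ml Hoechst), and nuclei were counted on 4× images. Relative viability is the nuclei count in treated wells divided by the count in vehicle wells, and each value is the median of duplicate plates.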

[2] = compound: CN(C)C[C@@H]1CCn2cc(c3ccccc32)C2=C(C(=O)NC2=O)c2cn(c3ccccc23)CCO1 [Ruboxistaurin] + CCNC(=O)c1noc(-c2cc(C(C)C)c(O)cc2O)c1-c1ccc(CN2CCOCC2)cc1 [Luminespib] (partner 0.01 µM)
In short: as §1

[3] = compound: CN(C)C[C@@H]1CCn2cc(c3ccccc32)C2=C(C(=O)NC2=O)c2cn(c3ccccc23)CCO1 [Ruboxistaurin] + O=C(CCCCCCC(=O)Nc1ccccc1)NO [Vorinostat] (partner 1 µM)
In short: as §1

Ruboxistaurin = compound: CN(C)C[C@@H]1CCn2cc(c3ccccc32)C2=C(C(=O)NC2=O)c2cn(c3ccccc23)CCO1 [Ruboxistaurin]
In short: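 Viability here means nuclei in treated wells divided by nuclei in vehicle wells, reported as the median across plates. Only plates with control CV below 25% and at least one doubling passed. Lung cancer cell lines in 1536-well plates were exposed to five √10-spaced library-drug doses for 5 days and counted from 4× Hoechst images in MetaXpress.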

[4] = compound: CN(C)C[C@@H]1CCn2cc(c3ccccc32)C2=C(C(=O)NC2=O)c2cn(c3ccccc23)CCO1 [Ruboxistaurin] + C[C@]1(O)C[C@@H](c2nc(-c3ccc4ccc(-c5ccccc5)nc4c3)c3c(N)nccn32)C1 [Linsitinib] (partner 1 µM)
In short: as §1

Cell Line: ChaGo-K-1
- relative viability ([1]; first compound 0.08 µM): 1.21
- relative viability ([1]; first compound 0.8 µM): 1.05
- relative viability ([1]; first compound 2.53 µM): 1.11
- relative viability ([1]; first compound 8 µM): 1.2
- relative viability ([2]; first compound 0.08 µM): 0.63
- relative viability ([2]; first compound 0.8 µM): 0.558
- relative viability ([2]; first compound 2.53 µM): 0.76
- relative viability ([2]; first compound 8 µM): 0.529
- relative viability ([3]; first compound 0.08 µM): 0.795
- relative viability ([3]; first compound 0.8 µM): 0.712
- relative viability ([3]; first compound 2.53 µM): 0.875
- relative viability ([3]; first compound 8 µM): 0.853
- relative viability (Ruboxistaurin; 0.08 µM): 1.06
- relative viability (Ruboxistaurin; 0.8 µM): 0.976
- relative viability (Ruboxistaurin; 2.53 µM): 1.06
- relative viability (Ruboxistaurin; 8 µM): 0.961

Cell Line: EKVX
- relative viability ([1]; first compound 0.08 µM): 1.09
- relative viability ([1]; first compound 0.8 µM): 0.989
- relative viability ([1]; first compound 2.53 µM): 0.983
- relative viability ([1]; first compound 8 µM): 0.895
- relative viability ([4]; first compound 0.08 µM): 1.08
- relative viability ([4]; first compound 0.8 µM): 0.948
- relative viability ([4]; first compound 2.53 µM): 0.971
- relative viability ([4]; first compound 8 µM): 0.931
- relative viability ([2]; first compound 0.08 µM): 0.945
- relative viability ([2]; first compound 0.8 µM): 0.843
- relative viability ([2]; first compound 2.53 µM): 0.919
- relative viability ([2]; first compound 8 µM): 0.926
- relative viability ([3]; first compound 0.08 µM): 0.841
- relative viability ([3]; first compound 0.8 µM): 0.65
- relative viability ([3]; first compound 2.53 µM): 0.714
- relative viability ([3]; first compound 8 µM): 0.75
- relative viability (Ruboxistaurin; 0.08 µM): 1.06
- relative viability (Ruboxistaurin; 0.8 µM): 0.928
- relative viability (Ruboxistaurin; 2.53 µM): 1.02
- relative viability (Ruboxistaurin; 8 µM): 0.884

Cell Line: EMC-BAC-2
- relative viability ([1]; first compound 0.08 µM): 0.741
- relative viability ([1]; first compound 0.8 µM): 0.713
- relative viability ([1]; first compound 2.53 µM): 0.715
- relative viability ([1]; first compound 8 µM): 0.68
- relative viability ([4]; first compound 0.08 µM): 0.885
- relative viability ([4]; first compound 0.8 µM): 0.775
- relative viability ([4]; first compound 2.53 µM): 0.773
- relative viability ([4]; first compound 8 µM): 0.739
- relative viability ([2]; first compound 0.08 µM): 1.23
- relative viability ([2]; first compound 0.8 µM): 1.12
- relative viability ([2]; first compound 2.53 µM): 0.991
- relative viability ([2]; first compound 8 µM): 0.925
- relative viability ([3]; first compound 0.08 µM): 0.53
- relative viability ([3]; first compound 0.8 µM): 0.461
- relative viability ([3]; first compound 2.53 µM): 0.523
- relative viability ([3]; first compound 8 µM): 0.384
- relative viability (Ruboxistaurin; 0.08 µM): 1.05
- relative viability (Ruboxistaurin; 0.8 µM): 0.957
- relative viability (Ruboxistaurin; 2.53 µM): 0.95
- relative viability (Ruboxistaurin; 8 µM): 0.84

Cell Line: EPLC-272H
- relative viability ([1]; first compound 0.08 µM): 0.926
- relative viability ([1]; first compound 0.8 µM): 0.793
- relative viability ([1]; first compound 2.53 µM): 0.917
- relative viability ([1]; first compound 8 µM): 0.932
- relative viability ([4]; first compound 0.08 µM): 1.28
- relative viability ([4]; first compound 0.8 µM): 1.09
- relative viability ([4]; first compound 2.53 µM): 1.2
- relative viability ([4]; first compound 8 µM): 1.16
- relative viability ([2]; first compound 0.08 µM): 0.368
- relative viability ([2]; first compound 0.8 µM): 0.224
- relative viability ([2]; first compound 2.53 µM): 0.293
- relative viability ([2]; first compound 8 µM): 0.668
- relative viability ([3]; first compound 0.08 µM): 0.498
- relative viability ([3]; first compound 0.8 µM): 0.48
- relative viability ([3]; first compound 2.53 µM): 0.357
- relative viability ([3]; first compound 8 µM): 0.429
- relative viability (Ruboxistaurin; 0.08 µM): 1.12
- relative viability (Ruboxistaurin; 0.8 µM): 0.794
- relative viability (Ruboxistaurin; 2.53 µM): 0.928
- relative viability (Ruboxistaurin; 8 µM): 0.857

Cell Line: H3255
- relative viability ([1]; first compound 0.08 µM): 1.01
- relative viability ([1]; first compound 0.8 µM): 0.835
- relative viability ([1]; first compound 2.53 µM): 0.89
- relative viability ([1]; first compound 8 µM): 0.809
- relative viability ([4]; first compound 0.08 µM): 1.09
- relative viability ([4]; first compound 0.8 µM): 0.953
- relative viability ([4]; first compound 2.53 µM): 0.943
- relative viability ([4]; first compound 8 µM): 0.931
- relative viability ([2]; first compound 0.08 µM): 1.02
- relative viability ([2]; first compound 0.8 µM): 0.726
- relative viability ([2]; first compound 2.53 µM): 0.957
- relative viability ([2]; first compound 8 µM): 0.865
- relative viability ([3]; first compound 0.08 µM): 0.717
- relative viability ([3]; first compound 0.8 µM): 0.717
- relative viability ([3]; first compound 2.53 µM): 0.815
- relative viability ([3]; first compound 8 µM): 0.898
- relative viability (Ruboxistaurin; 0.08 µM): 1.09
- relative viability (Ruboxistaurin; 0.8 µM): 0.919
- relative viability (Ruboxistaurin; 2.53 µM): 0.99
- relative viability (Ruboxistaurin; 8 µM): 0.99

Cell Line: HARA
- relative viability ([1]; first compound 0.08 µM): 1.07
- relative viability ([1]; first compound 0.8 µM): 0.919
- relative viability ([1]; first compound 2.53 µM): 1.18
- relative viability ([1]; first compound 8 µM): 1.03
- relative viability ([4]; first compound 0.08 µM): 1.15
- relative viability ([4]; first compound 0.8 µM): 0.922
- relative viability ([4]; first compound 2.53 µM): 1.08
- relative viability ([4]; first compound 8 µM): 0.657
- relative viability ([2]; first compound 0.08 µM): 0.612
- relative viability ([2]; first compound 0.8 µM): 0.495
- relative viability ([2]; first compound 2.53 µM): 0.837
- relative viability ([2]; first compound 8 µM): 0.601
- relative viability ([3]; first compound 0.08 µM): 0.724
- relative viability ([3]; first compound 0.8 µM): 0.494
- relative viability ([3]; first compound 2.53 µM): 0.535
- relative viability ([3]; first compound 8 µM): 0.546
- relative viability (Ruboxistaurin; 0.08 µM): 0.978
- relative viability (Ruboxistaurin; 0.8 µM): 0.918
- relative viability (Ruboxistaurin; 2.53 µM): 0.976
- relative viability (Ruboxistaurin; 8 µM): 0.929

Cell Line: HCC-15
- relative viability ([1]; first compound 0.08 µM): 0.815
- relative viability ([1]; first compound 0.8 µM): 0.794
- relative viability ([1]; first compound 2.53 µM): 0.754
- relative viability ([1]; first compound 8 µM): 0.845
- relative viability ([4]; first compound 0.08 µM): 0.841
- relative viability ([4]; first compound 0.8 µM): 0.834
- relative viability ([4]; first compound 2.53 µM): 0.852
- relative viability ([4]; first compound 8 µM): 0.776
- relative viability ([2]; first compound 0.08 µM): 0.278
- relative viability ([2]; first compound 0.8 µM): 0.329
- relative viability ([2]; first compound 2.53 µM): 0.32
- relative viability ([2]; first compound 8 µM): 0.716
- relative viability ([3]; first compound 0.08 µM): 0.975
- relative viability ([3]; first compound 0.8 µM): 0.74
- relative viability ([3]; first compound 2.53 µM): 0.925
- relative viability ([3]; first compound 8 µM): 0.833
- relative viability (Ruboxistaurin; 0.08 µM): 1.06
- relative viability (Ruboxistaurin; 0.8 µM): 0.953
- relative viability (Ruboxistaurin; 2.53 µM): 1.07
- relative viability (Ruboxistaurin; 8 µM): 1.04

Cell Line: HCC-44
- relative viability ([1]; first compound 0.08 µM): 0.756
- relative viability ([1]; first compound 0.8 µM): 0.674
- relative viability ([1]; first compound 2.53 µM): 0.867
- relative viability ([1]; first compound 8 µM): 0.853
- relative viability ([4]; first compound 0.08 µM): 0.643
- relative viability ([4]; first compound 0.8 µM): 0.645
- relative viability ([4]; first compound 2.53 µM): 0.674
- relative viability ([4]; first compound 8 µM): 0.635
- relative viability ([2]; first compound 0.08 µM): 1.16
- relative viability ([2]; first compound 0.8 µM): 0.973
- relative viability ([2]; first compound 2.53 µM): 1.06
- relative viability ([2]; first compound 8 µM): 1.09
- relative viability ([3]; first compound 0.08 µM): 1.04
- relative viability ([3]; first compound 0.8 µM): 1.04
- relative viability ([3]; first compound 2.53 µM): 1.1
- relative viability ([3]; first compound 8 µM): 1.23
- relative viability (Ruboxistaurin; 0.08 µM): 1.01
- relative viability (Ruboxistaurin; 0.8 µM): 0.979
- relative viability (Ruboxistaurin; 2.53 µM): 1.01
- relative viability (Ruboxistaurin; 8 µM): 1.07
